Test results reported in patent publication US9980943B2, “Methods of treating muscular dystrophy” (BOARD OF REGENTS OF THE NEVADA SYSTEM OF HIGHER EDUCATION, …, priority 2013, dated 2018).

How the values were obtained:
Format in all cases: cell-based, mouse
[1] = test system: α7 integrin (LacZ reporter in α7+/LacZ myotubes); assay: Myotube α7 integrin FDG assay (Burkin assay in myotubes, 96-well); conditions: for Burkin Assay in Myotubes, value relative to DMSO: SU9516 analogs, 96-well, N=3-6
[2] = test system: β-galactosidase in CMV-LacZ C2C12 myoblasts; assay: CMV-LacZ secondary screen in C2C12 myoblasts (β-Gal stabilizing assay); conditions: for CMV-LACZ in Myoblasts, value relative to DMSO: SU9516 analogs, C2C12 CMV-LacZ, N=2; for CMV-LACZ in Myoblasts (β-galactosidase activity relative to DMSO): CMV-LacZ C2C12 myoblasts
Procedure, shortened: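 β-gal stabilization was measured in C2C12 myoblasts or myotubes stably transfected with a CMV-driven LacZ construct, using the FDG β-gal assay. Compounds were tested in dose-response at 0.5, 1, 5, 10, 20 and 40 μM, with two replicates per point.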

[3] = test system: α7 integrin (LacZ reporter in α7βgal+/− myoblasts); assay: Myoblast α7+/LacZ integrin FDG assay (Burkin assay in myoblasts, 96-well); conditions: 96-well; for Burkin Assay in Myoblasts, value relative to DMSO: SU9516 analogs, N=3-6; for Burkin Assay in Myoblasts, signal relative to DMSO: α7+/LacZ myoblasts
[4] = test system: β-galactosidase in CMV-LacZ C2C12 myotubes; assay: CMV-LacZ secondary screen in C2C12 myotubes (β-Gal stabilizing assay); conditions: for CMV-LACZ in Myotubes, value relative to DMSO: SU9516 analogs, C2C12 CMV-LacZ, N=2; for CMV-LACZ in Myotubes, signal relative to DMSO: C2C12 CMV-LacZ myotubes, fold relative to DMSO
Procedure, shortened: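 A secondary screen identifies compounds that stabilize β-gal independently of the native promoter, using CMV-LacZ C2C12 cells. Curves span 0.5–40 μM at six levels, in duplicate.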

SMILES: CCn1c(O)c(C(C#N)=C2N=c3ccccc3=N2)c2ccccc21 [MLS000564846-01]
- Burkin Assay in Myotubes, value relative to DMSO ([1]; 0.5 uM): 0.8836
- Burkin Assay in Myotubes, value relative to DMSO ([1]; 1 uM): 0.9557
- Burkin Assay in Myotubes, value relative to DMSO ([1]; 5 uM): 1.002
- Burkin Assay in Myotubes, value relative to DMSO ([1]; 10 uM): 1.071
- Burkin Assay in Myotubes, value relative to DMSO ([1]; 20 uM): 0.7006
- Burkin Assay in Myotubes, value relative to DMSO ([1]; 40 uM): 0.7529
- CMV-LACZ in Myoblasts, value relative to DMSO ([2]; 0.5 uM): 0.9922
- CMV-LACZ in Myoblasts, value relative to DMSO ([2]; 1 uM): 0.8172
- CMV-LACZ in Myoblasts, value relative to DMSO ([2]; 5 uM): 0.9379
- CMV-LACZ in Myoblasts, value relative to DMSO ([2]; 10 uM): 1.3619
- CMV-LACZ in Myoblasts, value relative to DMSO ([2]; 20 uM): 1.2363
- CMV-LACZ in Myoblasts, value relative to DMSO ([2]; 40 uM): 1.0885
- Burkin Assay in Myoblasts, value relative to DMSO ([3]; 0.5 uM): 0.8359
- Burkin Assay in Myoblasts, value relative to DMSO ([3]; 1 uM): 0.8438
- Burkin Assay in Myoblasts, value relative to DMSO ([3]; 5 uM): 0.8067
- Burkin Assay in Myoblasts, value relative to DMSO ([3]; 10 uM): 0.8704
- Burkin Assay in Myoblasts, value relative to DMSO ([3]; 20 uM): 0.7406
- Burkin Assay in Myoblasts, value relative to DMSO ([3]; 40 uM): 0.759
- CMV-LACZ in Myotubes, value relative to DMSO ([4]; 0.5 uM): 0.8304
- CMV-LACZ in Myotubes, value relative to DMSO ([4]; 1 uM): 1.0444
- CMV-LACZ in Myotubes, value relative to DMSO ([4]; 5 uM): 1.1234
- CMV-LACZ in Myotubes, value relative to DMSO ([4]; 10 uM): 0.8711
- CMV-LACZ in Myotubes, value relative to DMSO ([4]; 20 uM): 1.2012
- CMV-LACZ in Myotubes, value relative to DMSO ([4]; 40 uM): 1.0094

SMILES: Cc1ccccc1-n1c(Cc2cccs2)n[nH]c1=S [MLS000568234-01]
- Burkin Assay in Myotubes, α7 integrin LacZ reporter signal relative to DMSO ([1]; 0.5 uM): 1.08
- Burkin Assay in Myotubes, α7 integrin LacZ reporter signal relative to DMSO ([1]; 1 uM): 1.167
- Burkin Assay in Myotubes, α7 integrin LacZ reporter signal relative to DMSO ([1]; 5 uM): 0.9642
- Burkin Assay in Myotubes, α7 integrin LacZ reporter signal relative to DMSO ([1]; 10 uM): 1.09
- Burkin Assay in Myotubes, α7 integrin LacZ reporter signal relative to DMSO ([1]; 20 uM): 0.8694
- Burkin Assay in Myotubes, α7 integrin LacZ reporter signal relative to DMSO ([1]; 40 uM): 0.9705
- CMV-LACZ in Myoblasts (β-galactosidase activity relative to DMSO) ([2]; 0.5 uM): 0.9556
- CMV-LACZ in Myoblasts (β-galactosidase activity relative to DMSO) ([2]; 1 uM): 0.9372
- CMV-LACZ in Myoblasts (β-galactosidase activity relative to DMSO) ([2]; 5 uM): 0.9043
- CMV-LACZ in Myoblasts (β-galactosidase activity relative to DMSO) ([2]; 10 uM): 0.9894
- CMV-LACZ in Myoblasts (β-galactosidase activity relative to DMSO) ([2]; 20 uM): 0.8819
- CMV-LACZ in Myoblasts (β-galactosidase activity relative to DMSO) ([2]; 40 uM): 0.7322
- Burkin Assay in Myoblasts, signal relative to DMSO ([3]; 0.5 uM): 1.094
- Burkin Assay in Myoblasts, signal relative to DMSO ([3]; 1 uM): 1.032
- Burkin Assay in Myoblasts, signal relative to DMSO ([3]; 5 uM): 1.136
- Burkin Assay in Myoblasts, signal relative to DMSO ([3]; 10 uM): 1.373
- Burkin Assay in Myoblasts, signal relative to DMSO ([3]; 20 uM): 1.106
- Burkin Assay in Myoblasts, signal relative to DMSO ([3]; 40 uM): 1.011
- CMV-LACZ in Myotubes, signal relative to DMSO ([4]; 0.5 uM): 1.3844
- CMV-LACZ in Myotubes, signal relative to DMSO ([4]; 1 uM): 1.2622
- CMV-LACZ in Myotubes, signal relative to DMSO ([4]; 5 uM): 1.0764
- CMV-LACZ in Myotubes, signal relative to DMSO ([4]; 10 uM): 0.9074
- CMV-LACZ in Myotubes, signal relative to DMSO ([4]; 20 uM): 0.9918
- CMV-LACZ in Myotubes, signal relative to DMSO ([4]; 40 uM): 0.9141

SMILES: O=C(Nc1ccccc1OC(=O)c1ccc(Cl)cc1)c1ccc(Cl)cc1 [MLS000573208-01]
- Burkin Assay in Myotubes, α7 integrin LacZ reporter signal relative to DMSO ([1]; 0.5 uM): 0.9453
- Burkin Assay in Myotubes, α7 integrin LacZ reporter signal relative to DMSO ([1]; 1 uM): 1.007
- Burkin Assay in Myotubes, α7 integrin LacZ reporter signal relative to DMSO ([1]; 5 uM): 0.98
- Burkin Assay in Myotubes, α7 integrin LacZ reporter signal relative to DMSO ([1]; 10 uM): 1.045
- Burkin Assay in Myotubes, α7 integrin LacZ reporter signal relative to DMSO ([1]; 20 uM): 0.8239
- Burkin Assay in Myotubes, α7 integrin LacZ reporter signal relative to DMSO ([1]; 40 uM): 0.5966
- CMV-LACZ in Myoblasts (β-galactosidase activity relative to DMSO) ([2]; 0.5 uM): 1.0197
- CMV-LACZ in Myoblasts (β-galactosidase activity relative to DMSO) ([2]; 1 uM): 0.9594
- CMV-LACZ in Myoblasts (β-galactosidase activity relative to DMSO) ([2]; 5 uM): 1.1030
- CMV-LACZ in Myoblasts (β-galactosidase activity relative to DMSO) ([2]; 10 uM): 0.8678
- CMV-LACZ in Myoblasts (β-galactosidase activity relative to DMSO) ([2]; 20 uM): 0.6626
- CMV-LACZ in Myoblasts (β-galactosidase activity relative to DMSO) ([2]; 40 uM): 0.9289
- Burkin Assay in Myoblasts, signal relative to DMSO ([3]; 0.5 uM): 1.031
- Burkin Assay in Myoblasts, signal relative to DMSO ([3]; 1 uM): 1.015
- Burkin Assay in Myoblasts, signal relative to DMSO ([3]; 5 uM): 0.9523
- Burkin Assay in Myoblasts, signal relative to DMSO ([3]; 10 uM): 0.8121
- Burkin Assay in Myoblasts, signal relative to DMSO ([3]; 20 uM): 1.632
- Burkin Assay in Myoblasts, signal relative to DMSO ([3]; 40 uM): 0.6235
- CMV-LACZ in Myotubes, signal relative to DMSO ([4]; 0.5 uM): 0.9547
- CMV-LACZ in Myotubes, signal relative to DMSO ([4]; 1 uM): 1.3021
- CMV-LACZ in Myotubes, signal relative to DMSO ([4]; 5 uM): 1.1765
- CMV-LACZ in Myotubes, signal relative to DMSO ([4]; 10 uM): 0.8913
- CMV-LACZ in Myotubes, signal relative to DMSO ([4]; 20 uM): 0.9633
- CMV-LACZ in Myotubes, signal relative to DMSO ([4]; 40 uM): 0.9478
